Assays:
[1] = target: T1, human Cot catalytic domain (30-397 amino acids) (Homo sapiens, UniProt P41279); test: High Throughput Cot Biochemical Assay (KinEASE TR-FRET); conditions: Cot KinEASE TR-FRET (HTRF) biochemical assay, 400 μM ATP; read-out: IC50 HTRF
T1 construct: Purified recombinant human Cot catalytic domain (30-397 amino acids) was purchased from Cama Biosciences; purchased Cama Biosciences (so in the source)
How it was run: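 Phosphorylation of 1 μM XL665-STK3 peptide by 5 nM Cot catalytic domain was measured by time-resolved FRET using a europium […] antibody. ATP was 400 μM; buffer was 10 mM MOPS pH 7.0 with Mg2+ and DTT.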

[2] = tested on: TNFα production in LPS-stimulated human monocytes; test: Cot Monocyte TNFα Cell Based Assay; conditions: Homo sapiens, Monocyte, TNFα in LPS-stimulated human monocytes; read-out: EC50 TNF
Experimental: Example 60: Cot Monocyte TNFα Cell Based Assay
The cell suspension was then plated at a density of 5,000 cells/well onto black 384 well Greiner clear bottom plates. Plates were pre-spotted with test compounds and serially diluted in DMSO where 200 nL/well were delivered using the Echo 550 acoustic liquid dispenser (Labcyte®) for a final DMSO concentration of 0.5%. Plated cells were treated with compound for 1 hour at 37° C. Cells were then stimulated with 50 pg/ml of LPS (Sigma) excluding outside columns of plate used for unstimulated cell control wells. Cells were incubated for an additional 4 hours at 37° C. Cells were then spun out of the media and 5 ul of sample were taken and analyzed for total TNFα content using the TR-FRET Human TNFα detection system (CisBio). This system utilizes two labeled antibodies (cryptate and XL665) that bind to two different epitopes of the TNFα molecule and produce FRET signal proportional to the concentration of TNFα in the sample. Detection antibodies are mixed 50:50 and 5 μL were dispensed into each well. Plates were covered with clear seals and incubated at room temp overnight. […] Percent of control was calculated as follows: % Control=100×(RatioSample−Ratio0% stimulation)/(Ratio100% Stimulation−Ratio0% Stimulation) where unstimulated cells (0% stimulation) were the negative control and stimulated cells (100% stimulation) were used as the positive control.

T1 sequence (P41279 30-397): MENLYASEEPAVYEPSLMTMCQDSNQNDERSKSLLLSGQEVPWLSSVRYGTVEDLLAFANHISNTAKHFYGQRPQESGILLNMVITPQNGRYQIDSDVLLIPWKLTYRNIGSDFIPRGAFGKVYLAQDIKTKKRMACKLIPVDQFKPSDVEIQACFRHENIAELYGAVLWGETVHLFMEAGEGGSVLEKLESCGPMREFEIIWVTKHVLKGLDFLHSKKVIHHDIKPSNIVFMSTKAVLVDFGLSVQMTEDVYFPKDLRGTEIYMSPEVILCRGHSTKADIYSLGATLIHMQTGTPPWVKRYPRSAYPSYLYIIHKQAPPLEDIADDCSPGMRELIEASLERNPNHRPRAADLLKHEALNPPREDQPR

| Structure (SMILES) | IC50 [1] [nM] | EC50 [2] [nM] |
| --- | --- | --- |
| [2H][C@](Nc1cc(C#C)c2ncc(C#N)c(N[C@H](CC)c3ccccc3)c2c1)(c1ccc(F)cc1)c1cn(C2CC2)nn1 [Compound 30] | 7210 | > 10000 |
| N#Cc1cnc2c(Cl)cc(N[C@@H](c3ccc(F)cc3)c3cn(C4CC4)nn3)cc2c1N[C@H](CCF)c1ccccc1 [Compound 32] | 5 | 78 |
| [2H]C(Nc1cc(Cl)c2ncc(C#N)c(N[C@H](CCN3CCOCC3)c3ccccc3)c2c1)(c1ccc(F)cc1)c1cn(C2CC2)nn1 (some centres unmarked) [Compound 34] | 13 | 192 |
| COCCN1CCC(n2cc([C@@H](Nc3cc(Cl)c4ncc(C#N)c(Nc5ccc(F)c(Cl)c5)c4c3)c3ccc(F)cc3)nn2)CC1 [Compound 35] | 15 | 229 |
| [2H]C(Nc1cc(Cl)c2ncc(C#N)c(N[C@H](CC)c3ccccc3)c2c1F)(c1cccc(C#N)c1)c1cn(C2CC2)nn1 (some centres unmarked) [Compound 36] | > 10000 | > 10000 |
| [2H][C@](Nc1cc(Cl)c2ncc(C#N)c(N[C@H](CC)c3ccccc3)c2c1)(c1cccc(C#N)c1)c1cnnn1C1CC1 [Compound 37] | 810 | > 1000 |
| CCN1CCC(n2cc([C@@H](Nc3cc(Cl)c4ncc(C#N)c(Nc5ccc(F)c(Cl)c5)c4c3)c3cccc(C(=O)N(C)C)c3)nn2)CC1 [Compound 41] | 1 | 74 |
| CC(C)(C)N1CCC(n2cc([C@@H](Nc3cc(Cl)c4ncc(C#N)c(Nc5ccc(F)c(Cl)c5)c4c3)c3cccc(C=O)c3)nn2)CC1 [Compound 42] | 5 | 138 |
| [2H][C@](Nc1cc(Cl)c2ncc(C#N)c(Nc3cnc(F)c(F)c3)c2c1)(c1ccc(F)cc1)c1cn(CF)nn1 [Compound 44] | 53 | 902 |
| Cn1cc([C@@H](Nc2cc(Cl)c3ncc(C#N)c(Nc4cnc(F)c(F)c4)c3c2)c2ccccc2F)nn1 [Compound 45] | 10 | 877 |
| CC(C)(C)CNc1c(C#N)cnc2c(C#N)cc(N[C@@H](c3cccc(C(=O)N4CC(F)C4)c3)c3cn(C4CC4)nn3)cc12 [Compound 58] | 3 | 269 |
| [2H][C@](Nc1cc(Cl)c2ncc(C#N)c(N[C@H](CC)c3ccccc3)c2c1)(c1cccc(C#N)c1)c1cn(CC=C)nn1 [Compound 61] | 3 | 75 |
| CC[C@@H](Nc1c(C#N)cnc2c(Cl)cc(N[C@H](c3cn(C4(C#N)CC4)nn3)c3ccccc3Cl)cc12)c1ccccc1 [Example 49, 8-chloro-6-(((S)-(2-chlorophenyl)(1-(1-cyanocyclopropyl)-1H-1,2,3-triazol-4-yl)methyl)amino)-4-(((R)-1-phenylpropyl)amino) quinoline-3-carbonitrile] | 26 | 330 |
| [2H][C@](Nc1cc(Cl)c2ncc(C#N)c(N[C@H](CCC#N)c3ccccc3)c2c1)(c1cccc(C#N)c1)c1cn(C(F)(F)CO)nn1 [Example 51, 8-chloro-4-(((R)-3-cyano-1-phenylpropyl)amino)-6-(((S)-(3-cyanophenyl) (1-(1,1-difluoro-2-hydroxyethyl)-1H-1,2,3-triazol-4-yl)methyl-d)amino) quinoline-3-carbonitrile] | 1 | 57 |
| CC(C)(C)CNc1c(C#N)cnc2c(Br)cc(N[C@@H](c3cccc(C(=O)N4CC(O)C4)c3)c3cn(C4CC4)nn3)cc12 [Example 52, (S)-8-bromo-6-(((1-cyclopropyl-1H-1,2,3-triazol-4-yl) (3-(3-hydroxyazetidine-1-carbonyl)phenyl)methyl)amino)-4-(neopentylamino) quinoline-3-carbonitrile] | 4 | > 1000 |
| CC(C)(C)CNc1c(C#N)cnc2c(Br)cc(N[C@@H](c3cccc(C(=O)N4CC(F)C4)c3)c3cn(C4CC4)nn3)cc12 [Example 53, (S)-8-bromo-6-(((1-cyclopropyl-1H-1,2,3-triazol-4-yl)(3-(3-fluoroazetidine-1-carbonyl)phenyl)methyl)amino)-4-(neopentylamino) quinoline-3-carbonitrile] | 5 | 163 |
| CC(C)(C)CNc1c(C#N)cnc2c(C#N)cc(N[C@@H](c3cccc(C(=O)N4CC(F)(F)C4)c3)c3cn(C4CC4)nn3)cc12 [Example 56, (S)-6-(((1-cyclopropyl-1H-1,2,3-triazol-4-yl)(3-(3,3-difluoroazetidine-1-carbonyl)phenyl)methyl)amino)-4-(neopentylamino) quinoline-3,8-dicarbonitrile] | 3 | 184 |
| CC(C)(C)CNc1c(C#N)cnc2c(C#N)cc(N[C@@H](c3cccc(C(=O)N4CC(O)C4)c3)c3cn(C4CC4)nn3)cc12 [Example 57, (S)-6-(((1-cyclopropyl-1H-1,2,3-triazol-4-yl) (3-(3-hydroxyazetidine-1-carbonyl)phenyl)methyl)amino)-4-(neopentylamino) quinoline-3,8-dicarbonitrile] | 3 | > 1000 |
| N#CCC[C@@H](Nc1c(C#N)cnc2c(Cl)cc(N[C@H](c3cn(C4COC4)nn3)c3ccccc3Cl)cc12)c1ccccc1 [Example 65, 8-chloro-6-(((S)-(2-chlorophenyl)(1-(oxetan-3-yl)-1H-3-triazol-4-yl)methyl)amino)-4-(((R)-3-cyano-1-phenylpropyl)amino) quinoline-3-carbonitrile] | 3 | 95 |
| N#CCC[C@@H](Nc1c(C#N)cnc2c(Cl)cc(N[C@H](c3cn(CC#N)nn3)c3ccccc3Cl)cc12)c1ccccc1 [Example 66, 8-chloro-6-(((S)-(2-chlorophenyl)(1-(cyanomethyl)-1H-1,2,3-triazol-4-yl)methyl)amino)-4-(((R)-3-cyano-1-phenylpropyl)amino) quinoline-3-carbonitrile] | 5 | 96 |
| N#CCC[C@@H](Nc1c(C#N)cnc2c(Cl)cc(N[C@H](c3cn(C(F)(F)CO)nn3)c3ccccc3Cl)cc12)c1ccccc1 [Example 67, 8-chloro-6-(((S)-(2-chlorophenyl)(1-(1,1-difluoro-2-hydroxyethyl)-1H-1,2,3-triazol-4-yl)methyl)amino)-4-(((R)-3-cyano-1-phenylpropyl)amino) quinoline-3-carbonitrile] | 2 | 41 |

Other lines, results leading:

| IC50 [1] [nM] | EC50 [2] [nM] | Structure (SMILES) |
| --- | --- | --- |
| 217 | > 1000 | [2H][C@](Nc1cc(C(C)O)c2ncc(C#N)c(NCC(C)(C)C)c2c1)(c1ccc(F)cc1)c1cn(C2CC2)nn1 (some centres unmarked) [Compound 29] |
| 1620 | > 10000 | [2H]C(Nc1cc(Cl)c2ncc(C#N)c(NC(=O)C(C)(C)C)c2c1)(c1ccc(F)cc1)c1cn(C2CC2)nn1 (centres unmarked) [Compound 33] |
| 1940 | > 10000 | [2H][C@](Nc1cc(O)c2ncc(C#N)c(NCC(C)(C)C)c2c1)(c1ccc(F)cc1)c1cn(C2CC2)nn1 [Compound 43] |
| 1 | 612 | CC(C)(C)CNc1c(C#N)cnc2c(C#N)cc(N[C@@H](c3cccc(C(N)=O)c3)c3cn(C4CC4)nn3)cc12 [Compound 59] |
| 17 | > 1000 | CC(C)(C)CNc1c(C#N)cnc2c(Br)cc(N[C@@H](c3cccc(C(=O)O)c3)c3cn(C4CC4)nn3)cc12 [Compound 60] |
| 29 | 447 | [2H][C@](Nc1cc(-c2cnc(C)nc2)c2ncc(C#N)c(NCC(C)(C)C)c2c1)(c1ccc(F)cc1)c1cn(C2CC2)nn1 [Compound 62] |
| 2 | 267 | CC(C)(C)CNc1c(C#N)cnc2c(Br)cc(N[C@@H](c3cccc(C(N)=O)c3)c3cn(C4CC4)nn3)cc12 [Example 54, (S)-3-(((8-bromo-3-cyano-4-(neopentylamino)quinolin-6-yl)amino) (1-cyclopropyl-1H-1,2,3-triazol-4-yl)methyl)benzamide] |
| 2 | 414 | CNC(=O)c1cccc([C@H](Nc2cc(C#N)c3ncc(C#N)c(NCC(C)(C)C)c3c2)c2cn(C3CC3)nn2)c1 [Example 55, (S)-3-((1-cyclopropyl-1H-1,2,3-triazol-4-yl) ((3,8-dicyano-4-(neopentylamino)quinolin-6-yl)amino)methyl)-N-methylbenzamide] |
| 213 | > 1000 | [2H][C@](Nc1cc(-c2cnco2)c2ncc(C#N)c(NCC(C)(C)C)c2c1)(c1ccc(F)cc1)c1cn(C2CC2)nn1 [Example 63, (S)-6-(((1-cyclopropyl-1H-1,2,3-triazol-4-yl)(4-fluorophenyl)methyl-d)amino)-4-(neopentylamino)-8-(oxazol-5-yl)quinoline-3-carbonitrile] |
| 106 | > 1000 | [2H][C@](Nc1cc(Cl)c2ncc(C#N)c(NC3CCOC(C)(C)C3)c2c1)(c1ccc(F)cc1)c1cn(C2CC2)nn1 (stereo partly drawn) [Example 64, 8-chloro-6-(((S)-(1-cyclopropyl-1H-1,2,3-triazol-4-yl)(4-fluorophenyl)methyl-d)amino)-4-((2,2-dimethyltetrahydro-2H-pyran-4-yl)amino) quinoline-3-carbonitrile] |

From patent publication US10316017B2, “COT modulators and methods of use thereof” (Gilead Sciences, Inc., priority 2015, dated 2019)
